Experimental data taken from publication PMC12096079, “m^6A modification is incorporated into bacterial mRNA without specific functional benefit” (Nucleic Acids Research, 2025).

Target: YafS (Escherichia coli, UniProt P75672)
Test: intrinsic tryptophan fluorescence quenching titration (ex […] nm, em […] nm)
Assay type: binding

YafS, sequence (P75672 whole entry): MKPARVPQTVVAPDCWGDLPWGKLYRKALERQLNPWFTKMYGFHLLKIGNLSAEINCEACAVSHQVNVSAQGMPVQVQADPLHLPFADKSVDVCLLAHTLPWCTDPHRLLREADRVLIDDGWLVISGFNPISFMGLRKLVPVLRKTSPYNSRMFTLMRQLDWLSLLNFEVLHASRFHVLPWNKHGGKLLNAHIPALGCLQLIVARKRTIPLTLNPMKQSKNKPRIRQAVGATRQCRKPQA

Kd: 680 ± 100 nM
SMILES: C[S+](CC[C@H](N)C(=O)O)C[C@H]1O[C@@H](n2cnc3c(N)ncnc32)[C@H](O)[C@@H]1O (stereo partly shown) [SAM]
